Legend:
[1] = tested on: mushroom tyrosinase; assay: Mushroom tyrosinase activity, cell-free, L-DOPA substrate; type: biochemical; conditions: all concentrations tested
Method: The direct effects of the compounds on tyrosinase enzyme activity were tested using mushroom tyrosinase enzyme with L-DOPA substrate. Briefly, 80 μl of all the 6 test compounds prepared at different concentrations in 50 mM sodium phosphate (pH 6.5) buffer was added to 96 wells followed by 100 μl of freshly prepared substrate solution (3 mM L-DOPA in buffer). The reaction was initiated by adding 20 μl of mushroom tyrosinase enzyme (final concentration of enzyme in wells was 3.5 μg/ml). The production of DOPAchrome was monitored by measuring the kinetics of absorbance increase at 475 nm (for 30 min every 30 seconds) at 30° C. using microplate reader (Versamax®). The slopes of the kinetic readings were calculated to determine and compare tyrosinase activity from control.

[2] = target: T1, cellular tyrosinase in B16F10 cells (Mus musculus, UniProt P11344); assay: Intracellular tyrosinase activity in B16F10 cells; type: cell-based; conditions: B16F10 cells exposed for 48 hours; non-linear curve fitting; read-out: IC50-Cellular tyrosinase inhibition
T1 construct: endogenous in cells; host or cells: B16F10
T1 sequence (P11344 19-533): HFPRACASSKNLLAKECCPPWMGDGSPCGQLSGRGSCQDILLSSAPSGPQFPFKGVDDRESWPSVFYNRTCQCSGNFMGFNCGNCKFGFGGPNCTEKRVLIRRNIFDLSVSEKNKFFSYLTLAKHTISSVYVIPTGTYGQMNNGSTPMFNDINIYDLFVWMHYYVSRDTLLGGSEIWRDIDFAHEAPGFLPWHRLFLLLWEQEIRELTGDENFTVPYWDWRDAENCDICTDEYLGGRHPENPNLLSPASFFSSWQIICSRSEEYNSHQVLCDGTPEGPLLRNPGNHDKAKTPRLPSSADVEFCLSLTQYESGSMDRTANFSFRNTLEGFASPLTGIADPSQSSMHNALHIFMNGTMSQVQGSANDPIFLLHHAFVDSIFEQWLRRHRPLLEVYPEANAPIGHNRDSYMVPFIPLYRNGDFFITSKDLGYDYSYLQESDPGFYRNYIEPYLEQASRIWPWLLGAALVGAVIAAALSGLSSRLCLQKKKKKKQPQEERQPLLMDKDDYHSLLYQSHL
Method: We quantitated the cellular tyrosinase activity to delineate mechanism of melanogenesis inhibition by the compounds. Briefly, B16F10 cells were cultured in 24-well tissue culture plates at a density of 4×10^4 cells/well. After 24 hrs, media was changed and test compounds were added, and further incubated for 48 hrs. At the end of treatments, cells were trypsinized and cell pellets were washed in PBS and lysed with lysis buffer (containing 1% NP-40 to solubilize the normally membrane-bound enzyme and protease inhibitors) under ice for 20 minutes and then centrifuged to remove cellular debris. 50 μl of lysates were then aliquoted in 96-well microplate and 150 μl of 3 mM solution of freshly prepared L-DOPA in phosphate buffer, pH 6.8 was added. […] The % inhibition of tyrosinase activity was calculated by determining melanin formation rates from measurements of the linear regions of the slopes of melanin content as a function of time and comparing computed rates of melanin formation in the presence of the test compounds to those of the controls.

[3] = DPPH antioxidant assay; conditions: cell-free
Text: Melanogenesis is often associated with higher oxidative stress and reactive oxygen species (ROS) generation. […] DPPH is a stable free radical which changes color from purple to yellow upon reduction by antioxidant compounds by electron donation; the color change can be measured spectrophotometrically. […] Briefly, 2,2-Diphenyl-1-picrylhydrazyl (DPPH) was freshly prepared in methanol and mixed with different concentrations of the compounds in triplicates in a 96 well plate. The Negative Control group consisted of DPPH only and Ascorbic Acid (AA) at 100 μg/ml was used as a positive control. The final DPPH concentration was 100 μM and final volume was 200 ul in the plate (20 μl samples with 180 μl of DPPH). The plate was covered and incubated for 30 minutes. Absorbance was read at 517 nm.

[4] = tested on: MITF; assay: MITF protein levels by cell-based ELISA in B16F10 cells; set-up: species or system mouse; conditions: 48 hours
Method: MITF is the master regulator of melanogenesis and a known transcription factor for tyrosinase gene. The effects of PC and CMCs on micropthalmia transcription factor (MITF) proteins levels were assayed using a cell-based ELISA (LifeSpan Biosciences, Seattle). Briefly, B16F10 cells were cultured in a 96-well plate at 1×10^4 cells/well for 24 hours and then media was replaced with fresh media containing compounds in 0.1% DMSO for further 48 hours. The cells were then fixed and subsequent steps were conducted based on manufacturer instructions. The absorbance of MITF expression levels were normalized by absorbance of crystal violet stain (0.05%) and data was reported as % of control.

[5] = tested on: HaCaT cells; assay: Phagocytosis assay using Fluosphere beads in keratinocytes; type: cell-based, human; conditions: beads 24 hours
Text: The final steps of melanognesis in the skin involve transfer of melanin contained within matgure melanosomes from melanocytes to keratinocytes. In order to model melanosome uptake by keratinocytes in the presence of CMCs, we used uptake of fluosphere latex beads (0.5 μm, carboxylate-modified, Molecular Probes, Eugene, Oreg.) by a human keratinocyte cell line (HaCaT) as a model for melanosome uptake study; this model has been previously established [Cardinali G, et al. 2005; Cardinali, G. et al. 2008] to study phagocytosis by keratinocytes. HaCaT cells were cultured in 24 well plates (3.5×10^4 cells/well) for 48 hours and then media was replaced with fresh media containing CMCs (CMC2.14 at 10 μM, CMC2.5 at 20 μM, CMC2.23 at 20 μM and CMC2.24 at 20 μM). Control wells were treated with 0.1% DMSO. After 48 hours exposure, media was removed and wells were washed with PBS and Fluosphere bead solution was suspended in complete medium by sonication for 15 minutes was then diluted in complete medium before addition to the wells ([…]) and further incubation for 24 hours. After the treatment, wells were washed in PBS and extracellular fluorescence was quenched using trypan blue (0.1% in PBS); Fluorescence intensity over the entire bottom surface of each well was measured at excitation/emission of 580/605 using the “well-scan” mode with average of 21 points/well for triplicate wells in a Gemini EM fluorescence plate reader. Controls without any beads were used as blank for background subtraction and results are reported as RFU values expressed as % relative to control.

[6] = B16F10, 5 μM (printed 5 M for CMC2.23)
[7] = B16F10, 20 μM (printed 20 M for CMC2.5)

Structure (SMILES)	inhibition of mushroom tyrosinase activity [1]	IC50 [2]	DPPH antioxidant activity [3]	inhibition of MITF protein levels [4, 6]	inhibition of MITF protein levels ([4]; B16F10, 10 μM)	inhibition of MITF protein levels [4, 7]	inhibition of phagocytosis of Fluosphere beads ([5]; 20 μM pretreatment 48 hours)	inhibition of MITF protein levels ([4]; B16F10, tested concentrations 5-10 μM)	inhibition of phagocytosis of Fluosphere beads ([5]; 10 μM pretreatment 48 hours)	inhibition of MITF protein levels ([4]; B16F10, 25 μM)
COC(=O)C(C(=O)C=Cc1ccc(O)c(OC)c1)C(=O)C=Cc1ccc(O)c(OC)c1 (stereo not shown) [CMC2.5, 4-methoxycarbonyl curcumin]	moderate inhibition	50.7 µM	significant DPPH radical scavenging activity	did not show any suppression	did not show any suppression	35%	38.4%	–	–	–
COC(=O)C(C(=O)/C=C/c1ccc(O)cc1)C(=O)/C=C/c1ccc(O)cc1 [CMC2.14]	moderate inhibition	4.69 µM	did not demonstrate potent antioxidant activity	–	–	–	–	did not show any significant reduction	39.6%	–
COc1cc(/C=C/C(=O)C(C(=O)/C=C/c2ccc(O)c(OC)c2)C(=O)Nc2ccccc2)ccc1O [CMC2.23]	moderate inhibition	13 µM	significant DPPH radical scavenging activity	20%	–	40%	37.4%	–	–	40%
